Laboratory results published in the NIST ThermoML archive (doi:10.1021/je700261b).

Experiment: xn = mol fraction of the nth substance listed
Settings: Liquid

CCCCO [butan-1-ol] + O=C=O
Settings | mass density [kg/m3]
332.94 K, 21042 kPa, x2 = 0.9698 | 765.72
332.94 K, 21997 kPa, x2 = 0.9698 | 776.05
332.94 K, 22013 kPa, x2 = 0.0251 | 799.22
332.94 K, 22983 kPa, x2 = 0.9698 | 785.85
332.94 K, 23023 kPa, x2 = 0.0251 | 800
332.94 K, 23838 kPa, x2 = 0.9698 | 793.78
332.94 K, 24078 kPa, x2 = 0.0251 | 800.8
332.94 K, 25033 kPa, x2 = 0.0251 | 801.51
332.96 K, 2025 kPa, x2 = 0.0857 | 785.34
332.96 K, 3025 kPa, x2 = 0.0857 | 786.35
332.96 K, 3995 kPa, x2 = 0.0857 | 787.3
332.96 K, 5006 kPa, x2 = 0.0857 | 788.3
332.96 K, 6029 kPa, x2 = 0.0857 | 789.27
332.96 K, 6996 kPa, x2 = 0.0857 | 790.2
332.96 K, 8001 kPa, x2 = 0.0857 | 791.2
332.96 K, 9060 kPa, x2 = 0.0857 | 792.17
332.96 K, 10005 kPa, x2 = 0.0857 | 793.04
332.96 K, 11020 kPa, x2 = 0.0857 | 793.96
332.96 K, 12043 kPa, x2 = 0.0857 | 794.89
332.96 K, 13021 kPa, x2 = 0.0857 | 795.74
332.96 K, 14023 kPa, x2 = 0.0857 | 796.64
332.96 K, 15013 kPa, x2 = 0.0857 | 797.55
332.96 K, 15989 kPa, x2 = 0.0857 | 798.3
332.96 K, 17015 kPa, x2 = 0.0857 | 799.17
332.96 K, 18001 kPa, x2 = 0.0857 | 799.98
332.96 K, 18996 kPa, x2 = 0.0857 | 800.8
332.96 K, 20012 kPa, x2 = 0.0857 | 801.65
332.96 K, 21010 kPa, x2 = 0.0857 | 802.47
332.96 K, 22025 kPa, x2 = 0.0857 | 803.27
332.96 K, 22983 kPa, x2 = 0.0857 | 804.05
332.96 K, 24061 kPa, x2 = 0.0857 | 804.91
332.96 K, 25000 kPa, x2 = 0.0857 | 805.68
332.99 K, 11100 kPa, x2 = 0.4972 | 807.58
332.99 K, 12062 kPa, x2 = 0.4972 | 809.21
332.99 K, 13082 kPa, x2 = 0.4972 | 810.88
332.99 K, 14087 kPa, x2 = 0.8663 | 752.33
332.99 K, 14115 kPa, x2 = 0.4972 | 812.58
332.99 K, 15053 kPa, x2 = 0.8663 | 762.95
332.99 K, 15061 kPa, x2 = 0.4972 | 814.12
332.99 K, 16035 kPa, x2 = 0.4972 | 815.66
332.99 K, 16081 kPa, x2 = 0.8663 | 772.94
332.99 K, 17073 kPa, x2 = 0.8663 | 781.43
332.99 K, 17108 kPa, x2 = 0.4972 | 817.32
332.99 K, 18040 kPa, x2 = 0.4972 | 818.75
332.99 K, 18052 kPa, x2 = 0.8663 | 789.26
332.99 K, 19036 kPa, x2 = 0.4972 | 820.22
332.99 K, 19049 kPa, x2 = 0.8663 | 796.49
332.99 K, 20021 kPa, x2 = 0.8663 | 803.04
332.99 K, 20051 kPa, x2 = 0.4972 | 821.73
332.99 K, 21046 kPa, x2 = 0.8663 | 809.49
332.99 K, 21048 kPa, x2 = 0.4972 | 823.17
332.99 K, 22048 kPa, x2 = 0.4972 | 824.6
332.99 K, 22064 kPa, x2 = 0.8663 | 815.51
332.99 K, 23005 kPa, x2 = 0.8663 | 820.74
332.99 K, 23047 kPa, x2 = 0.4972 | 826
332.99 K, 24018 kPa, x2 = 0.4972 | 827.36
332.99 K, 24028 kPa, x2 = 0.8663 | 826.19
332.99 K, 25056 kPa, x2 = 0.4972 | 828.77
332.99 K, 25067 kPa, x2 = 0.8663 | 831.43
333 K, 12077 kPa, x2 = 0.5965 | 809.05
333 K, 13047 kPa, x2 = 0.5965 | 811.32
333 K, 14101 kPa, x2 = 0.5965 | 813.7
333 K, 15079 kPa, x2 = 0.5965 | 815.86
333 K, 16069 kPa, x2 = 0.5965 | 817.96
333 K, 17045 kPa, x2 = 0.5965 | 820
333 K, 18064 kPa, x2 = 0.5965 | 822.1
333 K, 19045 kPa, x2 = 0.5965 | 824.02
333 K, 20044 kPa, x2 = 0.5965 | 825.94
333 K, 21039 kPa, x2 = 0.5965 | 827.8
333 K, 22043 kPa, x2 = 0.5965 | 829.66
333 K, 23048 kPa, x2 = 0.5965 | 831.48
333 K, 24011 kPa, x2 = 0.5965 | 833.21
333 K, 25086 kPa, x2 = 0.5965 | 835.1
333.08 K, 6035 kPa, x2 = 0.1842 | 792
333.08 K, 7047 kPa, x2 = 0.1842 | 793.11
333.08 K, 8021 kPa, x2 = 0.1842 | 794.16
333.08 K, 9035 kPa, x2 = 0.1842 | 795.25
333.08 K, 10030 kPa, x2 = 0.1842 | 796.3
333.08 K, 11057 kPa, x2 = 0.1842 | 797.37
333.08 K, 12025 kPa, x2 = 0.1842 | 798.41
333.08 K, 13041 kPa, x2 = 0.1842 | 799.39
333.08 K, 14034 kPa, x2 = 0.1842 | 800.34
333.08 K, 15074 kPa, x2 = 0.1842 | 801.36
333.08 K, 16022 kPa, x2 = 0.1842 | 802.27
